Here are results for three compounds from patent US6897210B2, “Quinazoline derivatives and pharmaceutical compositions containing them” (Zeneca Limited, priority 1996, dated 2005).

SMILES strings stand for the structures.

Data set [1] has as its system VEGF receptor tyrosine kinase (Flt, KDR). The data set is described as follows: In vitro receptor tyrosine kinase inhibition test (VEGF receptor). The class given is biochemical. Particulars: VEGF receptor tyrosine kinase compared with EGF receptor tyrosine kinase. An excerpt:
(a) In Vitro Receptor Tyrosine Kinase Inhibition Test
This assay determines the ability of a test compound to inhibit tyrosine kinase activity. […] These may then be expressed in a suitable expression system to obtain polypeptide with tyrosine kinase activity. […] This recombinant construct was co-transfected into insect cells (for example Spodoptera frugiperda 21(Sf21)) with viral DNA (eg Pharmingen BaculoGold) to prepare recombinant baculovirus.
For expression of cFlt tyrosine kinase activity, Sf21 cells were infected with plaque-pure cFlt recombinant virus at a multiplicity of infection of 3 and harvested 48 hours later. […] The suspension was centrifuged for 10 minutes at 13,000 rpm at 4° C., the supernatant (enzyme stock) was removed and stored in aliquots at −70° C. Each new batch of stock enzyme was titrated in the assay by dilution with enzyme diluent (100 mM Hepes pH 7.4, 0.2 mM sodium orthovanadate. 0.1% v/v Triton X100, 0.2 mM dithiothreitol). For a typical batch, stock enzyme is diluted 1 in 2000 with enzyme diluent and 50 μl of dilute enzyme is used for each assay well.
A stock of substrate solution was prepared from a random copolymer containing tyrosine, for example Poly (Glu, Ala, Tyr) 6:3:1 (Sigma P3899), stored as 1 mg/ml stock in PBS at −20° C. and diluted 1 in 500 with PBS for plate coating.
On the day of the assay the substrate solution was discarded and the assay plate wells were washed once with PBST (PBS containing 0.05% v/v Tween 20) and once with 50 mM Hepes pH7.4.
Test compounds were diluted with 10% dimethylsulphoxide (DMSO) and 25 μl of diluted compound was transferred to wells in the washed assay plates. “Total” control wells contained 10% DMSO instead of compound. Twenty five microliters of 40 mM manganese(II)chloride containing 8 μM adenosine-5′-triphosphate (ATP) was added to all test wells except “blank” control wells which contained maganese(II)chloride without ATP. To start the reactions 50 μl of freshly diluted enzyme was added to each well and the plates were incubated at room temperature for 20 minutes. The liquid was then discarded and the wells were washed twice with PBST. […] Plates were then incubated for 20-60 minutes at room temperature until the optical density value of the “total” control wells, measured at 405 nm using a plate reading spectrophotometer, was approximately 1.0.

Take `COc1cc2c(Nc3ccc(Cl)cc3F)ncnc2cc1OCCNC(=O)OC(C)(C)C` [Example 34, 7-(2-[N-tert-butoxycarbonylamino]ethoxy)4-(4-chloro-2-fluoroanilino)6-methoxyquinazoline]: the melting point is 190 to 191 °C. Also, the “activity against VEGF and EGF receptor tyrosine kinases” value in data set [1] is listed as “substantially equivalent activity”.
For `COc1cc2c(Nc3ccc(Cl)cc3F)ncnc2cc1OCCN1CCCC1=O.Cl` [Example 39, 4-(4-chloro-2-fluoroanilino)6-methoxy-7-(2-(2-oxopyrrolidin-1-yl)ethoxy)quinazoline hydrochloride] the same measures were 250 to 252 °C and “substantially equivalent activity”.
The matching figures for `COc1cc2c(Nc3ccc(Cl)cc3F)ncnc2cc1OCCN1CCNC1=O` [Example 40, 4-(4-chloro-2-fluoroanilino)6-methoxy-7-(2-(2-oxoimidazolidin-1-yl)ethoxy)quinazoline]: over 250 °C and “substantially equivalent activity”.
